# From publication PMC6013247, “Preclinical characterization of INCB053914, a novel pan-PIM kinase inhibitor, alone and in combination with anticancer agents, in models of hematologic malignancies” (PLoS ONE, 2018)
# Columns and labels:
# Mino = test: Cell proliferation assay ([3H]-thymidine); format: cell-based; details: Homo sapiens; Mino (MCL); read-out: Mean (± SD) GI50
# Protocol: (§1) The antiproliferative effects of INCB053914 on hematologic tumor cells were investigated using assays described in the Supporting Information (S2 File).
# (§2) Cell proliferation assays. […] After 3 to 4 days, [^3H]-thymidine (1 μCi/well) (PerkinElmer) in PBS (10 μl) was added to the cell culture for an additional 12 hours. The incorporated radioactivity was separated by filtration with water through GF/B filters (Packard Bioscience, Meriden, Connecticut) and measured by liquid scintillation counting with a TopCount (Packard Bioscience).
# PL-21 = test: Cell proliferation assay ([3H]-thymidine); format: cell-based; details: PL-21 (AML); read-out: Mean (± SD) GI50
# Protocol: as §1, §2
# Jurkat = test: Cell proliferation assay ([3H]-thymidine); format: cell-based; details: Jurkat (T-ALL)
# Protocol: as §1, §2
# MM1.S = test: Cell proliferation assay ([3H]-thymidine); format: cell-based; details: MM1.S (MM)
# Protocol: as §1, §2
# KG-1a = test: Cell proliferation assay ([3H]-thymidine); format: cell-based; details: KG-1a (AML)
# Protocol: as §1, §2
# JM-1 = test: Cell proliferation assay ([3H]-thymidine); format: cell-based; details: JM-1 (T-ALL)
# Protocol: as §1, §2
# MOLP-2 = test: Cell proliferation assay ([3H]-thymidine); format: cell-based; details: MOLP-2 (MM)
# Protocol: as §1, §2
# MOLP-8 = test: Cell proliferation assay ([3H]-thymidine); format: cell-based; details: MOLP-8 (MM)
# Protocol: as §1, §2
# THP-1 = test: Cell proliferation assay ([3H]-thymidine); format: cell-based; details: THP-1 (AML)
# Protocol: as §1, §2
# KMS-34 = test: Cell proliferation assay ([3H]-thymidine); format: cell-based; details: KMS-34 (MM)
# Protocol: as §1, §2
# Kasumi-3 = test: Cell proliferation assay ([3H]-thymidine); format: cell-based; details: Kasumi-3 (AML)
# Protocol: as §1, §2
# F36P = test: Cell proliferation assay ([3H]-thymidine); format: cell-based; details: F36P (AML)
# Protocol: as §1, §2
# SKM-1 = test: Cell proliferation assay ([3H]-thymidine); format: cell-based; details: Homo sapiens; SKM-1 (AML); read-out: Mean (± SD) GI50
# Protocol: as §1, §2
# HL-60 = test: Cell proliferation assay ([3H]-thymidine); format: cell-based; details: Homo sapiens; HL-60 (AML); read-out: Mean (± SD) GI50
# Protocol: as §1, §2
# OPM-2 = test: Cell proliferation assay ([3H]-thymidine); format: cell-based; details: OPM-2 (MM)
# Protocol: as §1, §2
# WSU-NHL = test: Cell proliferation assay ([3H]-thymidine); format: cell-based; details: WSU-NHL (DLBCL)
# Protocol: as §1, §2
# OCI-LY-3 = test: Cell proliferation assay ([3H]-thymidine); format: cell-based; details: Homo sapiens, OCI-Ly3; OCI-LY-3 (DLBCL); read-out: Mean (± SD) GI50
# Protocol: as §1, §2
# L363 = test: Cell proliferation assay ([3H]-thymidine); format: cell-based; details: L363 (MM)
# Protocol: as §1, §2
# RPMI8226 = test: Cell proliferation assay ([3H]-thymidine); format: cell-based; details: RPMI8226 (MM)
# Protocol: as §1, §2
# Jeko-1 = test: Cell proliferation assay ([3H]-thymidine); format: cell-based; details: Jeko-1 (MCL)
# Protocol: as §1, §2
# KMS-12-PE = test: Cell proliferation assay ([3H]-thymidine); format: cell-based; details: KMS-12-PE (MM)
# Protocol: as §1, §2
# KMS-12-BM = test: Cell proliferation assay ([3H]-thymidine); format: cell-based; details: Homo sapiens; KMS-12-BM (MM); read-out: Mean (± SD) GI50
# Protocol: as §1, §2
# MOLM-13 = test: Cell proliferation assay ([3H]-thymidine); format: cell-based; details: Homo sapiens; MOLM-13 (AML); read-out: Mean (± SD) GI50
# Protocol: as §1, §2
# JVM2 = test: Cell proliferation assay ([3H]-thymidine); format: cell-based; details: JVM2 (MCL)
# Protocol: as §1, §2
# INA-6 = test: Cell proliferation assay ([3H]-thymidine); format: cell-based; details: INA-6 (MM)
# Protocol: as §1, §2
# OCI-LY-10 = test: Cell proliferation assay ([3H]-thymidine); format: cell-based; details: OCI-LY-10 (DLBCL)
# Protocol: as §1, §2
# Pfeiffer = test: Cell proliferation assay ([3H]-thymidine); format: cell-based; details: Pfeiffer (DLBCL)
# Protocol: as §1, §2
# Kasumi-1 = test: Cell proliferation assay ([3H]-thymidine); format: cell-based; details: Kasumi-1 (AML)
# Protocol: as §1, §2
# [1] = target: Per-Arnt-Sim (PAS) kinase (Homo sapiens, UniProt Q96RG2); test: PAS kinase activity, further evaluation; format: biochemical
# [2] = Homo sapiens, read-out: Mean (± SD) GI50
# Per-Arnt-Sim (PAS) kinase, sequence (Q96RG2 whole entry): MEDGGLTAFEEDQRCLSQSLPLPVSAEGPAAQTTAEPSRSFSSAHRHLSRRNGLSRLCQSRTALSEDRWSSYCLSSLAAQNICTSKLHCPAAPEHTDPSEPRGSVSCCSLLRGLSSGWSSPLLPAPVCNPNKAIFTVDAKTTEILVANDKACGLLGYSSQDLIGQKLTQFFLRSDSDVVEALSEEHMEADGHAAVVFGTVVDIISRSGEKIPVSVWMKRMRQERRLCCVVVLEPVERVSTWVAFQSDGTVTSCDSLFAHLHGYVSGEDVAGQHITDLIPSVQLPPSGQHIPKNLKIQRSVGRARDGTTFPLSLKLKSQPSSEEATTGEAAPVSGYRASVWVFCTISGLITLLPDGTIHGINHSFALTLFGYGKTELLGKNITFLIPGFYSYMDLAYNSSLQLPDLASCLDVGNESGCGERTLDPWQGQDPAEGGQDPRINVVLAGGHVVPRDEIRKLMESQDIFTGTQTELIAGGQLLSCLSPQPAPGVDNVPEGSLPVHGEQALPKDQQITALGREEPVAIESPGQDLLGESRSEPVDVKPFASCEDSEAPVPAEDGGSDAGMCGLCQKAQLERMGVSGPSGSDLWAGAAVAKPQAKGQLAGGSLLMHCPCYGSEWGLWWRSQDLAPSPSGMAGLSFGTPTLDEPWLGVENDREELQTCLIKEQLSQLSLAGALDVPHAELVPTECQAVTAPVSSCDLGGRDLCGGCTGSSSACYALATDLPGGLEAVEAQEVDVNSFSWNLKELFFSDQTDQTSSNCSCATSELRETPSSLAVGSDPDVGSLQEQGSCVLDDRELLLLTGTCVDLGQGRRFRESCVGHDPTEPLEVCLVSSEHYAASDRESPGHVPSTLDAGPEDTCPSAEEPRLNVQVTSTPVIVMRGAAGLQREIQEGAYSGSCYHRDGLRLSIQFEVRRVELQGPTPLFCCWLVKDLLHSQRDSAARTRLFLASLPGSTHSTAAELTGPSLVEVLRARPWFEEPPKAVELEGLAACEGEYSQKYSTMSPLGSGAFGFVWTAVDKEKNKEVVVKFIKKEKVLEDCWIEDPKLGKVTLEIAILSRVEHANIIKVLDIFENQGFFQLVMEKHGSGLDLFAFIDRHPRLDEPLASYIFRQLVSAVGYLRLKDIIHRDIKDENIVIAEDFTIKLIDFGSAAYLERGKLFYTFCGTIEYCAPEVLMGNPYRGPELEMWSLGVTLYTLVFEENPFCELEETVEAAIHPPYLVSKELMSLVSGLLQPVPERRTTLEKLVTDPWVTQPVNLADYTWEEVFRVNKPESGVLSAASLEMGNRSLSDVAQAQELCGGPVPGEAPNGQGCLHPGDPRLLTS
smiles,measurement,setting,value
"C[C@H]1CN(c2c(NC(=O)c3ccc(F)c(-c4c(F)cccc4F)n3)cnc3c2CC[C@H]3O)C[C@@H](N)[C@@H]1O.O=P(O)(O)O [INCB053914, N-((R)-4-((3R,4R,5S)-3-amino-4-hydroxy-5-methylpiperidin-1-yl)-7-hydroxy-6,7-dihydro-5H-cyclopenta[b]pyridin-3-yl)-6-(2,6-difluorophenyl)-5-fluoropicolinamide phosphate]",GI50,Mino,> 3000 nM
same,GI50,PL-21,> 3000 nM
same,GI50,Jurkat; [2],931 ± 800 nM
same,Mean (SD) maximum inhibition,Jurkat,66.0 ± 7.0%
same,GI50,MM1.S; [2],55.4 ± 38.1 nM
same,Mean (SD) maximum inhibition,MM1.S,88.3 ± 3.1%
same,GI50,KG-1a; [2],14.3 ± 4.9 nM
same,Mean (SD) maximum inhibition,KG-1a,94.5 ± 1.5%
same,GI50,"JM-1; Homo sapiens, JM1, read-out: Mean (± SD) GI50",19.5 ± 15.1 nM
same,Mean (SD) maximum inhibition,JM-1,94.3 ± 4.9%
same,Mean (SD) maximum inhibition,MOLP-2,95.4 ± 3.2%
same,GI50,MOLP-2; read-out: Mean (± SD) GI50,23.8 ± 10.1 nM
same,GI50,MOLP-8; [2],13.2 ± 7.7 nM
same,Mean (SD) maximum inhibition,MOLP-8,93.3 ± 1.7%
same,GI50,THP-1; [2],2050 nM
same,Mean (SD) maximum inhibition,THP-1,76.3 ± 22.3%
same,Mean (SD) maximum inhibition,KMS-34,98.8 ± 0.5%
same,GI50,KMS-34; read-out: Mean (± SD) GI50,87.1 ± 28 nM
same,Mean (SD) maximum inhibition,Kasumi-3,84.3 ± 7.2%
same,GI50,Kasumi-3; read-out: Mean (± SD) GI50,4.9 nM
same,Mean (SD) maximum inhibition,F36P,94.7 ± 2.5%
same,GI50,F36P; read-out: Mean (± SD) GI50,76.1 ± 36.7 nM
same,GI50,SKM-1,> 3000 nM
same,GI50,HL-60,> 3000 nM
same,GI50,OPM-2; [2],123 ± 4.9 nM
same,Mean (SD) maximum inhibition,OPM-2,87.5 ± 8.0%
same,GI50,WSU-NHL; [2],1270 nM
same,Mean (SD) maximum inhibition,WSU-NHL,76.8 ± 10.5%
same,GI50,OCI-LY-3,> 3000 nM
same,GI50,"L363; Homo sapiens, L-363, read-out: Mean (± SD) GI50",115 ± 89.4 nM
same,Mean (SD) maximum inhibition,L363,90.3 ± 8.1%
same,GI50,"RPMI8226; Homo sapiens, RPMI-8226, read-out: Mean (± SD) GI50",230 ± 132 nM
same,Mean (SD) maximum inhibition,RPMI8226,96.8 ± 2.2%
same,GI50,Jeko-1; [2],117 ± 45.5 nM
same,Mean (SD) maximum inhibition,Jeko-1,91.3 ± 2.9%
same,GI50,KMS-12-PE; [2],89.7 ± 50.9 nM
same,Mean (SD) maximum inhibition,KMS-12-PE,97.0 ± 4.7%
same,GI50,KMS-12-BM,34.2 ± 19.9 nM
same,GI50,MOLM-13,> 3000 nM
same,GI50,"JVM2; Homo sapiens, JVM-2, read-out: Mean (± SD) GI50",290 ± 291 nM
same,Mean (SD) maximum inhibition,JVM2,63.0 ± 8.7%
same,Mean (SD) maximum inhibition,INA-6,99.0 ± 0.2%
same,GI50,INA-6; read-out: Mean (± SD) GI50,24.8 ± 4.6 nM
same,GI50,"OCI-LY-10; Homo sapiens, OCI-Ly10, read-out: Mean (± SD) GI50",41.7 ± 29.4 nM
same,Mean (SD) maximum inhibition,OCI-LY-10,96.3 ± 5.5%
same,GI50,Pfeiffer; [2],19.5 nM
same,Mean (SD) maximum inhibition,Pfeiffer,90.5 ± 6.7%
same,GI50,Kasumi-1; [2],206 ± 76.3 nM
same,Mean (SD) maximum inhibition,Kasumi-1,76.7 ± 4.6%
same,effect on PAS kinase activity relative to PIM2,[1],approximately equipotent effects on PIM2 and PAS kinase activities
